From patent publication US20100331348A1, “TROPANE DERIVATIVES USEFUL AS PESTICIDES” (SYNGENTA CROP PROTECTION, INC., priority 2007, published 2010)
Like-named read-outs stand apart in the source and are kept apart here.

What was measured:
Plasmopara viticola = Plasmopara viticola (downy mildew of grapevine) leaf disk assay; format: in vivo; settings: foliar, 168 h, preventive, seven days after inoculation, read-out: control of fungal infection, Plasmopara viticola
[1] = system: Puccinia recondita f.sp. tritici; assay: Puccinia recondita f.sp. tritici (wheat brown rust) leaf disk assay; format: in vivo; settings: foliar, 216 h, preventive, nine days after inoculation, read-out: control of fungal infection, Puccinia recondita f.sp. tritici
Septoria tritici = Septoria tritici (leaf blotch) growth inhibition in nutrient broth; format: cell-based; settings: Zymoseptoria tritici, 72 hrs, read-out: control of fungal infection, Septoria tritici
Heliothis virescens = Heliothis virescens (Tobacco budworm) egg test on artificial diet; settings: 96 h, read-out: control of Heliothis virescens
Pyricularia oryzae = assay: whole plant or invertebrate; format: in vivo; settings: foliar, 96 h
Aedes aegypti = Aedes aegypti (Yellow fever mosquito) larvae test; format: in vivo; settings: 48 h
Pythium ultimum = Pythium ultimum (Damping off) growth inhibition in potato dextrose broth; format: cell-based; settings: Globisporangium ultimum, 48 hours, read-out: control of fungal infection, Pythium ultimum
Tetranychus urticae = settings: foliar, 192 h, read-out: control of Tetranychus urticae
Plutella xylostella = Plutella xylostella (Diamond back moth) artificial diet test; settings: 120 h, read-out: control of Plutella xylostella
Phytophthora infestans = assay: whole plant or invertebrate; format: in vivo; settings: foliar, 96 h, read-out: control of fungal infection, Phytophthora infestans
Spodoptera littoralis = Spodoptera littoralis (Egyptian cotton leafworm) cotton leaf disc test; settings: in Gossypium hirsutum, foliar, 72 h, read-out: control of Spodoptera littoralis
[2] = system: Erysiphe graminis f.sp. tritici; assay: Erysiphe graminis f.sp. tritici (wheat powdery mildew) leaf disk assay; format: in vivo; settings: Blumeria graminis, foliar, 96 h, preventive, four days after inoculation, read-out: control of fungal infection, Erysiphe graminis fsp. tritici
[3] = read-out: control of fungal infection, Pyricularia oryzae (at least 60% list)
[4] = read-out: control of fungal infection, Pyricularia oryzae (at least 80% list)

Compound	pest or weed control at 200 ppm (Plasmopara viticola) [%]	pest or weed control at 200 ppm [1] [%]	inhibition of growth at 200 ppm (Septoria tritici) [%]	pest or weed control at 200 ppm (Heliothis virescens) [%]	pest or weed control at 200 ppm (Pyricularia oryzae; [3]) [%]	pest or weed control at 200 ppm (Pyricularia oryzae; [4]) [%]	pest or weed control at 2 ppm (Aedes aegypti) [%]	inhibition of growth at 200 ppm (Pythium ultimum) [%]	pest or weed control at 200 ppm (Tetranychus urticae) [%]	pest or weed control at 200 ppm (Plutella xylostella) [%]	pest or weed control at 200 ppm (Phytophthora infestans) [%]	pest or weed control at 200 ppm (Spodoptera littoralis) [%]	pest or weed control at 200 ppm [2] [%]
Clc1ccc(CC2CC3CCC(C2)N3c2ncnc3sccc23)cc1 (centres unmarked) [Example 7.10]	≥ 80	≥ 80	≥ 60	≥ 80	≥ 60	≥ 80	≥ 80	–	–	–	–	–	–
FC(F)(F)c1ccc(CON=C2CC3CCC(C2)N3c2ncnc3ccccc23)cc1 [Example 5.128]	–	≥ 80	≥ 60	≥ 80	≥ 60	≥ 80	≥ 80	≥ 60	≥ 80	≥ 80	–	–	–
C(=C1CC2CCC(C1)N2c1ncnc2sccc12)c1ccccc1 [Example 3.27]	≥ 80	≥ 80	–	≥ 80	≥ 60	≥ 80	≥ 80	–	≥ 80	≥ 80	≥ 80	≥ 80	–
CCc1ncnc(N2C3CCC2CC(CC(=O)OC)C3)c1Cl (centres unmarked) [Example 7.36]	–	–	≥ 60	≥ 80	–	–	≥ 80	–	≥ 80	≥ 80	–	–	–
CCc1ncnc(N2C3CCC2CC(=Cc2ccc(OC)cc2)C3)c1Cl [Example 3.9]	–	–	–	≥ 80	≥ 60	≥ 80	≥ 80	–	≥ 80	≥ 80	–	≥ 80	–
CCc1ncnc(N2C3CCC2CC(=Cc2ccc(C)cc2)C3)c1Cl [Example 3.7]	–	≥ 80	–	≥ 80	–	–	≥ 80	–	≥ 80	≥ 80	–	≥ 80	–
c1ccc(CC2CC3CCC(C2)N3c2ncnc3sccc23)cc1 (centres unmarked) [Example 7.6]	≥ 80	≥ 80	≥ 60	≥ 80	≥ 60	≥ 80	≥ 80	–	–	–	–	–	–
Fc1cc(C(F)(F)F)ccc1CON=C1CC2CCC(C1)N2c1ncnc2ccccc12 [Example 5.135]	–	≥ 80	≥ 60	≥ 80	≥ 60	≥ 80	≥ 80	≥ 60	≥ 80	≥ 80	–	–	–
Fc1ccc(F)c(CON=C2CC3CCC(C2)N3c2ncnc3ccccc23)c1F [Example 5.134]	–	≥ 80	≥ 60	≥ 80	≥ 60	–	≥ 80	≥ 60	–	≥ 80	–	–	–
Clc1ccc(C=C2CC3CCC(C2)N3c2ncnc3sccc23)cc1 [Example 3.20]	≥ 80	≥ 80	–	≥ 80	≥ 60	≥ 80	≥ 80	–	≥ 80	≥ 80	–	≥ 80	–
Fc1ccccc1CON=C1CC2CCC(C1)N2c1ncnc2sccc12 [Example 5.211]	–	≥ 80	–	≥ 80	–	–	≥ 80	–	–	≥ 80	≥ 80	≥ 80	≥ 80
